From patent publication US20210015883A1, “A NOVEL SYNERGIC HERBAL FORMULATION FOR THE PREVENTION AND TREATMENT OF PRE-DIABETES, DIABETES AND OTHER INSULIN RESISTANCE CASES” (priority 2018, published 2021)

Experiments:
PPAR gamma = PPAR gamma gene expression by Real Time PCR in differentiated 3T3L1 adipocytes; assay type: cell-based; details: SC = Pioglitazone 6 μg/ml, 12th day, control = 1
Procedure: Samples of Herbal formulation were evaluated over a concentration range from 0.5 to 10 μg/ml. Pioglitazone, a known anti-diabetic agent was used as the standard control at a dose of 6 μg/ml; a dose extrapolated from the median therapeutic human dose. The Herbal formulation was dissolved in NAOH (0.1N).
Viability studies were carried out to eliminate cytotoxic concentrations of the samples using MTT assay. Based on the results of the MTT assay, the following concentrations were used for the PPAR Expression studies. Concentration selected was as follows 2.5, 5, 10 μg/ml.
3T3L1 Fibroblasts were grown in DMEM medium, supplemented with 10% FBS, in a humidified atmosphere of 5% CO2 at 370 C. […]
On the 12th day after differentiation, total RNA was extracted with TRIzol reagent according to the manufacturer's instructions from the differentiated adipocytes. The concentration and purity of RNA were determined by measuring the absorbance at 260 nm (A260) and the ratio of the absorbance at 260 nm to the absorbance at 280 nm (A260/A280), respectively. […] SYBR Green chemistry was used to perform the quantitative determination of the relative expression of PPAR gene. The PPAR gene was analyzed using the Rotogene Q; Qiagen real-time polymerase chain reaction machine. […]

[1] = system: high fat diet and Streptozotocin (stz) induced insulin resistance in rats; test: Insulin levels in high fat diet + STZ rats (RIA); assay type: in vivo, Albino Wistar rats; details: HFD+STZ rats
Procedure: (§1) Evaluation of antidiabetic effect of herbal formulation against high fat diet and Streptozotocin (stz) induced insulin resistance in rats.
(§2) Rats were divided 5 into groups of 8 rats each and treated in the following way:
(§3) Group III Herbal formulation I as per Example 4 (500 mg): Received HFD throughout the experiment (45 days), STZ (40 mg/kg, i.p) on the 15th day of start of experiment and the Herbal formulation (500 mg/kg, p.o) from the 18th day for the next 28 days.
(§4) Group IV Herbal formulation II as per Example 4 (1000 mg): Received HFD throughout the experiment (45 days), STZ (40 mg/kg, i.p) on the 15th day of start of experiment and the Herbal formulation (1000 mg/kg, p.o) from the 18th day for the next 28 days.
(§5) Group V Reference standard: Receive HFD throughout the experiment (45 days), STZ (40 mg/kg, i.p) on the 15th day of start of experiment and Metformin, (120 mg/kg) from the 18th day for the next 28 days.
(§6) The rats were allocated into dietary regimens by feeding HFD (58% fat, 25% protein and 17% carbohydrate, as a percentage of total kcal) and drinking water ad libitum, respectively, for the initial period of 2 weeks. After 2 weeks of dietary manipulation, the group of rats fed with HFD were injected a single low dose of STZ (40 mg/kg, i.p), while the Normal control rats were given the vehicle citrate buffer (pH 4.4) in a dose volume of 1 mL/kg, i.p. The fasting blood glucose (FBG) were measured 3 days after the STZ injection. The rats with FBG of more than 250 mg/dL were considered diabetic and selected for further pharmacological studies and their dosing with the Herbal formulations commenced and continued for the next 28 days. The rats were allowed to continue to feed on their respective diets until the end of the study. All FBG and insulin levels were determined on different days viz. 18th day (3rd day after STZ injection), 25th, 32nd, 39th and 45th days (24 h after the previous dose) by collecting blood from the tail vein/retro orbital plexus. On the 44th day Oral Glucose Tolerance Test (OGTT) was performed wherein animals of all groups received glucose solution (1.5 g/kg) 30 minutes after the above treatments. Blood glucose and insulin levels were determined at 0, 30, 60, 90, 120 min after glucose administration. Blood glucose levels were measured using a digital glucometer. Insulin was assayed by using a RIA kit.
(§7) √—Correction of the nonlinear values distribution. • A. Animals used: 40 • B. Species/Common name: Albino Wistar rats • C. Age/weight/size: Ten weeks, 150-180 g • D. Gender: Male • E. Number to be used (Year-wise breakups and total figures needed to be given): 40 • F. Number of days each animal will be housed: 3 months • G. Details of injections schedule: • H. Details of withdrawal: • Volumes: 2 mL per animal by retro-orbital plexus for insulin assay and 0.1 mL by tail vein for blood glucose. • I. Sites: Retro-orbital plexus, tail vein

[2] = system: high fat diet and Streptozotocin (stz) induced insulin resistance in rats; test: QUICKI insulin sensitivity index in high fat diet + STZ rats; assay type: in vivo, Albino Wistar rats; details: HFD+STZ rats
Procedure: as §6
Quantitative insulin sensitivity check index (QUICKI) is an empirically-derived mathematical transformation of fasting blood glucose and plasma insulin concentrations that provide a consistent and precise ISI with a better positive predictive power. It is simply a variation of HOMA equations, as it transforms the data by taking both the logarithm and the reciprocal of the glucose-insulin product, thus slightly skewing the distribution of fasting insulin values. […] It employs the use of fasting values of insulin and glucose as in HOMA calculations. QUICKI is virtually identical to the simple equation form of the HOMA model in all aspects, except that a log transform of the insulin glucose product is employed to calculate QUICKI. The QUICKI can be determined from fasting plasma glucose (mg/dl) and insulin (μIU/ml) concentrations.
QUICKI values range between 0.45 in healthy individuals (noted as unusually healthy in the original study) and 0.30 in diabetics. Lower values reflect greater resistance with values below 0.339 indicating insulin resistance.

[3] = system: high fat diet and Streptozotocin (stz) induced insulin resistance in rats; test: Matsuda index from OGTT in high fat diet + STZ rats; assay type: in vivo, Albino Wistar rats; details: Metformin 120 mg/kg p.o., HFD+STZ rats, value less than 4.3 indicates insulin resistance
Procedure: as §6, with “After” for “The rats were allocated into dietary regimens by feeding HFD (58% fat, 25% protein and 17% carbohydrate, as a percentage of total kcal) and drinking water ad libitum, respectively, for the initial period of 2 weeks. After”, “The rats with FBG of more than 250 mg/dL were considered diabetic and selected for further pharmacological studies and their dosing with the Herbal formulations commenced and continued for the next 28 days.” left out

[4] = system: high fat diet and Streptozotocin (stz) induced insulin resistance in rats; test: HOMA-IR insulin resistance index in high fat diet + STZ rats; assay type: in vivo, Albino Wistar rats; details: HFD+STZ rats
Procedure: as §6, with “After” for “The rats were allocated into dietary regimens by feeding HFD (58% fat, 25% protein and 17% carbohydrate, as a percentage of total kcal) and drinking water ad libitum, respectively, for the initial period of 2 weeks. After”, “The rats with FBG of more than 250 mg/dL were considered diabetic and selected for further pharmacological studies and their dosing with the Herbal formulations commenced and continued for the next 28 days.” left out
Insulin resistance is calculated using the following methods: […]
HOMA is a model of the relationship of glucose and insulin dynamics that predicts fasting steady-state glucose and insulin concentrations for a wide range of possible combinations of insulin resistance and β-cell function. Insulin levels depend on the pancreatic β-cell response to glucose concentrations while, glucose concentrations are regulated by insulin-mediated glucose production via the liver. Thus, deficient β-cell function will echo a diminished response of β-cell to glucose-stimulated insulin secretion. Similarly, insulin resistance is reflected by the diminished suppressive effect of insulin on hepatic glucose production. […] HOMA describes this glucose-insulin homeostasis by means of a set of simple, mathematically-derived nonlinear equations. The approximating equation for insulin resistance has been simplified; it uses a fasting blood sample. It is derived from the use of the insulin-glucose product, divided by a constant.
The product of FPG×FPI is an index of hepatic insulin resistance.
I0—Fasting plasma insulin concentration (mIU/L), G0—Fasting plasma glucose concentration (mg/dL),

[5] = system: high fat diet and Streptozotocin (stz) induced insulin resistance in rats; test: Fasting blood glucose levels in high fat diet + STZ rats; assay type: in vivo, Albino Wistar rats
Procedure: as §1, §2
Group I Normal control group—Received normal chow diet and drinking water daily for 45 days and citrate buffer (1 mL/kg, i.p) on the 15th day of start of experiment.
Group II Toxicant Control: Received HFD throughout the experiment (45 days) and STZ (40 mg/kg, i.p) on the 15th day of start of experiment.
as §3, §4, §5, §6, §7

[6] = system: high fat diet and Streptozotocin (stz) induced insulin resistance in rats; test: Oral glucose tolerance test (OGTT) on day 44 in high fat diet + STZ rats; assay type: in vivo, Albino Wistar rats; details: Metformin 120 mg/kg p.o., HFD+STZ rats
Procedure: as §1, §3, §4, §5, §6, §7

[7] = Metformin 120 mg/kg p.o., Day 25
[8] = Metformin 120 mg/kg p.o., Day 32
[9] = Metformin 120 mg/kg p.o., Day 39
[10] = Metformin 120 mg/kg p.o., Day 45
[11] = Metformin 120 mg/kg p.o. group, Day 18 (start of treatment)

Compound: CCc1ccc(CCOc2ccc(CC3SC(=O)NC3=O)cc2)nc1 (centres unmarked) [Pioglitazone]
- 2^-DDCT (relative PPAR gamma mRNA expression) (PPAR gamma): 2.292

Compound: CN(C)C(=N)N=C(N)N [Metformin]
- Insulin level ([1]; Metformin 120 mg/kg p.o. group, date printed as "—" (first reading)): 31.56 ± 1.95 mIU/L
- Insulin level [1, 7]: 22.56 ± 2.24 mIU/L
- Insulin level [1, 8]: 27.84 ± 5.014 mIU/L
- Insulin level [1, 9]: 23.40 ± 3.47 mIU/L
- Insulin level [1, 10]: 15.36 ± 0.58 mIU/L
- QUICKI [2, 11]: 0.24 ± 0.0057
- QUICKI [2, 7]: 0.276 ± 0.0021
- QUICKI [2, 8]: 0.26 ± 0.0042
- QUICKI [2, 9]: 0.27 ± 0.0055
- QUICKI [2, 10]: 0.29 ± 0.0030
- Matsuda Index [3]: 12.56
- HOMA-IR [4, 11]: 31.7 ± 4.75
- HOMA-IR [4, 7]: 9.91 ± 0.69
- HOMA-IR [4, 8]: 15.8 ± 2.76
- HOMA-IR [4, 9]: 10.56 ± 1.7
- HOMA-IR [4, 10]: 5.81 ± 0.39
- course of BGL over 4 weeks of treatment (in words) ([5]; HFD+STZ rats): gradual decrease in BGL
- Blood glucose level ([5]; Metformin 120 mg/kg p.o. group, HFD+STZ rats, Day 1 (before treatment, dosing from day 18)): 126.87 ± 2.41 mg/dL
- Blood glucose level ([5]; Metformin 120 mg/kg p.o. group, HFD+STZ rats, Day 7 (before treatment)): 138.63 ± 1.54 mg/dL
- Blood glucose level ([5]; Metformin 120 mg/kg p.o. group, HFD+STZ rats, Day 15 (before treatment)): 156.37 ± 3.17 mg/dL
- Blood glucose level ([5]; Metformin 120 mg/kg p.o. group, HFD+STZ rats, Day 18 (3rd day after STZ, start of treatment)): 396.67 ± 43.72 mg/dL
- Blood glucose level ([5]; Metformin 120 mg/kg p.o., HFD+STZ rats, Day 25): 183.167 ± 13.58 mg/dL
- Blood glucose level ([5]; Metformin 120 mg/kg p.o., HFD+STZ rats, Day 32): 245.167 ± 28.86 mg/dL
- Blood glucose level ([5]; Metformin 120 mg/kg p.o., HFD+STZ rats, Day 39): 191.83 ± 25.08 mg/dL
- Blood glucose level ([5]; Metformin 120 mg/kg p.o., HFD+STZ rats, Day 45): 152.83 ± 8.40 mg/dL
- BGL at the end of the study compared with the HFD+STZ group (in words) ([5]; treatment groups): significantly lower
- OGTT Glucose ([6]; 0 Min after glucose 1.5 g/kg): 129.5 ± 1.17 mg/dL
- OGTT Insulin ([6]; 0 Min after glucose 1.5 g/kg): 13.12 ± 0.97 mIU/L
- OGTT Glucose ([6]; 30 Min after glucose 1.5 g/kg): 249.50 ± 0.56 mg/dL
- OGTT Insulin ([6]; 30 Min after glucose 1.5 g/kg): 27.308 ± 1.4 mIU/L
- OGTT Glucose ([6]; 90 Min after glucose 1.5 g/kg): 185.167 ± 2.08 mg/dL
- OGTT Insulin ([6]; 90 Min after glucose 1.5 g/kg): 22.72 ± 1.49 mIU/L
- OGTT Glucose ([6]; 120 Min after glucose 1.5 g/kg): 149.83 ± 2.81 mg/dL
- OGTT Insulin ([6]; 120 Min after glucose 1.5 g/kg): 14.95 ± 1.035 mIU/L
